Measurements reported in ChEMBL document CHEMBL5137017, “Identification of NVP-CLR457 as an Orally Bioavailable Non-CNS-Penetrant pan-Class IA Phosphoinositol-3-Kinase Inhibitor” (J Med Chem, 2022).
Converted amounts (≈) assume the structure as drawn.

Tests used:
[1] = Aqueous solubility of compound in buffer at pH 7.4 by HPLC analysis; format: physicochemical
[2] = target: Serine/threonine-protein kinase mTOR (Homo sapiens, UniProt P42345); assay: Displacement of Alexa Fluor labelled Tracer-314 from human N-terminal GST-tagged mTOR incubated for 1 hr by TR-FRET assay
[3] = Drug concentration in OF1 mouse brain at 1 mg/kg, iv measured at 1 hr post dose by LC-MS/MS analysis; format: ADME, organism-based; conditions: in vivo
[4] = Oral bioavailability in Sprague-Dawley rat at 20 mg/kg using crystalline form of sample; format: ADME, organism-based; conditions: in vivo
[5] = Dose normalized AUC(0 to Tlast) in athymic nude mouse xenografted with rat Rat1 cells expressing myr-p110alpha at 20 mg/kg, po measured after 8 days by LC-MS/MS analysis; format: ADME, organism-based; conditions: in vivo, 192 h, time 8 day
Rat1 [6] = assay: Antitumor activity at rat Rat1 cells expressing myr-p110alpha xenografted in athymic nude mouse assessed as T/C ratio at 10 mg/kg, po qd measured after 14 to 22 days; format: functional; conditions: time 14-22 day
[7] = Toxicity in athymic nude mouse xenografted with human HBRX2524 cells assessed as change in body weight at 40 mg/kg, po qd measured upto 16 days; format: organism-based; conditions: in vivo, 384 h, time < 16 day
[8] = Solubility of compound in FaSSIF at pH 5.8 measured upto 120 mins by HPLC analysis; format: physicochemical
[9] = Stability in human liver microsomes assessed as hepatic extraction preincubated for 3 mins followed by NADPH addition and measured after 60 mins; format: ADME, Microsome; conditions: read-out: ERH
[10] = Effect on plasma insulin level in athymic nude mouse xenografted with rat Rat1 cells expressing myr-p110alpha at 20 mg/kg, po qd measured for 1 to 10 hrs by glucometer analysis; format: toxicity, organism-based; conditions: in vivo, time 1-10 hrs
[11] = Clast in athymic nude mouse xenografted with rat Rat1 cells expressing myr-p110alpha at 3 mg/kg, po measured after 8 days by LC-MS/MS analysis; format: ADME, organism-based; conditions: in vivo, time 8 day, read-out: Clast
[12] = AUC(0 to Tlast) in athymic nude mouse xenografted with rat Rat1 cells expressing myr-p110alpha at 20 mg/kg, po measured after 8 days by LC-MS/MS analysis; format: ADME, organism-based; parameters: dose 20 mg/kg, time 8 day, route po; conditions: in vivo
[13] = Dose normalized Cmax in Sprague-Dawley rat at 100 mg/kg, po measured upto 24 hrs by LC-MS/MS analysis; format: ADME, organism-based; conditions: in vivo
[14] = Toxicity in athymic nude mouse xenografted with rat Rat1 cells expressing myr-p110alpha assessed as decrease in body weight at 40 mg/kg, po bid measured after 9 days; format: organism-based; conditions: in vivo, 216 h, time 9 day
Rat1 [15] = assay: Antitumor activity at rat Rat1 cells expressing myr-p110alpha xenografted in athymic nude mouse assessed as tumor growth inhibition at 20 mg/kg, po bid measured after 9 days; format: functional; conditions: Rat1, 216 h, time 9 day
[16] = Inhibition of PI3K PTEN mutant in human HCC70 cells assessed as reduction in phosphorylation of AKT at Ser473 residue by Western blot analysis; format: cell-based
[17] = Dose normalized AUC in OF1 mouse plasma at 10 mg/kg, po measured upto 24 hrs by LC-MS/MS analysis; format: ADME, organism-based; conditions: in vivo
[18] = Solubility of compound in FaSSIF at pH 6.5 measured upto 120 mins by HPLC analysis; format: physicochemical
[19] = target: Phosphatidylinositol 4,5-bisphosphate 3-kinase catalytic subunit alpha isoform (Homo sapiens, UniProt P42336); assay: Inhibition of PI3Kalpha (unknown origin) using L-alpha-phosphatidylinositol as substrate in presence of ATP by Kinase Glo luminescence assay
[20] = Dose normalized AUC in beagle dog at 0.1 mg/kg, iv measured upto 24 hrs by LC-MS/MS analysis; format: ADME, organism-based, Canis lupus familiaris; conditions: in vivo
[21] = Tmax in Sprague-Dawley rat at 30 mg/kg, po measured upto 24 hrs by LC-MS/MS analysis; format: ADME, organism-based; conditions: in vivo
[22] = Oral bioavailability in Sprague-Dawley rat at 21.5 mg/kg using hydroxypropyl methylcellulose amorphous solid dispersion form of sample; format: ADME, organism-based; conditions: in vivo
[23] = Half life in Beagle dog at 6 mg/kg, po measured upto 24 hrs using crystalline form of sample by LC-MS/MS analysis; format: ADME, organism-based, Canis lupus familiaris; conditions: in vivo
Rat1 [24] = assay: Antitumor activity at rat Rat1 cells expressing myr-p110delta xenografted in athymic nude mouse assessed as T/C ratio at 20 mg/kg, po bid measured after 7 to 15 days; format: functional; conditions: time 7-15 day
[25] = Tlast in athymic nude mouse xenografted with rat Rat1 cells expressing myr-p110alpha at 3 mg/kg, po measured after 8 days by LC-MS/MS analysis; format: ADME, organism-based; conditions: in vivo, 192 h, time 8 day
[26] = Effect on plasma insulin level in athymic nude mouse xenografted with rat Rat1 cells expressing myr-p110alpha at 3 mg/kg, po qd measured upto 14 hrs by glucometer analysis; format: toxicity, organism-based; conditions: in vivo
[27] = Oral bioavailability in beagle dog at 0.3 mg/kg measured upto 24 hrs by LC-MS/MS analysis; format: ADME, organism-based, Canis lupus familiaris; conditions: in vivo
[28] = Cmax in athymic nude mouse xenografted with rat Rat1 cells expressing myr-p110alpha at 10 mg/kg, po measured after 8 days by LC-MS/MS analysis; format: ADME, organism-based; parameters: dose 10 mg/kg, time 8 day, route po; conditions: in vivo
[29] = Tmax in Sprague-Dawley rat at 3 mg/kg, po measured upto 24 hrs by LC-MS/MS analysis; format: ADME, organism-based; conditions: in vivo
[30] = Clast in athymic nude mouse xenografted with rat Rat1 cells expressing myr-p110alpha at 20 mg/kg, po measured after 8 days by LC-MS/MS analysis; format: ADME, organism-based; conditions: in vivo, time 8 day, read-out: Clast
[31] = target: Serine/threonine-protein kinase mTOR (Mus musculus, UniProt Q9JLN9); assay: Inhibition of mTOR in Tscl-/- null mouse MEF assessed as reduction on RPS6 phosphorylation at Ser235/236 residue by alpha-screen assay; format: cell-based
[32] = Dose normalized AUC in beagle dog at 3 mg/kg, po measured upto 24 hrs by LC-MS/MS analysis; format: ADME, organism-based, Canis lupus familiaris; conditions: in vivo
[33] = Inhibition of PI3K PTEN mutant in human BT-549 cells assessed as reduction in phosphorylation of AKT at Ser473 residue by Western blot analysis; format: cell-based
[34] = Cmax in beagle dog at 0.3 mg/kg,po or 0.1 mg/kg,iv measured upto 24 hrs by LC-MS/MS analysis; format: ADME, organism-based, Canis lupus familiaris; parameters: dose 0.3 mg/kg, time < 24 hrs, route po; conditions: in vivo
[35] = Dose normalized AUC(0 to Tlast) in athymic nude mouse xenografted with rat Rat1 cells expressing myr-p110alpha at 3 mg/kg, po measured after 8 days by LC-MS/MS analysis; format: ADME, organism-based; conditions: in vivo, 192 h, time 8 day
[36] = Tmax in Beagle dog at 5.4 mg/kg, po measured upto 24 hrs using PVP-ASD form of sample by LC-MS/MS analysis; format: ADME, organism-based, Canis lupus familiaris; conditions: in vivo
[37] = In vivo Inhibition of AKT phosphorylation at Ser473 residue in athymic nude mouse xenografted with rat Rat1-myr-p110alpha cells at 20 mg/kg, po qd measured after 14 hrs; format: functional
[38] = Volume of distribution at steady state in OF1 mouse at 10 mg/kg,po or 3 mg/kg,iv measured upto 24 hrs by LC-MS/MS analysis; format: ADME, organism-based; conditions: in vivo
[39] = 1-octanol, logP of the compound at pH 7.4; format: physicochemical

Sequence of Phosphatidylinositol 4,5-bisphosphate 3-kinase catalytic subunit alpha isoform (P42336 whole entry, canonical isoform): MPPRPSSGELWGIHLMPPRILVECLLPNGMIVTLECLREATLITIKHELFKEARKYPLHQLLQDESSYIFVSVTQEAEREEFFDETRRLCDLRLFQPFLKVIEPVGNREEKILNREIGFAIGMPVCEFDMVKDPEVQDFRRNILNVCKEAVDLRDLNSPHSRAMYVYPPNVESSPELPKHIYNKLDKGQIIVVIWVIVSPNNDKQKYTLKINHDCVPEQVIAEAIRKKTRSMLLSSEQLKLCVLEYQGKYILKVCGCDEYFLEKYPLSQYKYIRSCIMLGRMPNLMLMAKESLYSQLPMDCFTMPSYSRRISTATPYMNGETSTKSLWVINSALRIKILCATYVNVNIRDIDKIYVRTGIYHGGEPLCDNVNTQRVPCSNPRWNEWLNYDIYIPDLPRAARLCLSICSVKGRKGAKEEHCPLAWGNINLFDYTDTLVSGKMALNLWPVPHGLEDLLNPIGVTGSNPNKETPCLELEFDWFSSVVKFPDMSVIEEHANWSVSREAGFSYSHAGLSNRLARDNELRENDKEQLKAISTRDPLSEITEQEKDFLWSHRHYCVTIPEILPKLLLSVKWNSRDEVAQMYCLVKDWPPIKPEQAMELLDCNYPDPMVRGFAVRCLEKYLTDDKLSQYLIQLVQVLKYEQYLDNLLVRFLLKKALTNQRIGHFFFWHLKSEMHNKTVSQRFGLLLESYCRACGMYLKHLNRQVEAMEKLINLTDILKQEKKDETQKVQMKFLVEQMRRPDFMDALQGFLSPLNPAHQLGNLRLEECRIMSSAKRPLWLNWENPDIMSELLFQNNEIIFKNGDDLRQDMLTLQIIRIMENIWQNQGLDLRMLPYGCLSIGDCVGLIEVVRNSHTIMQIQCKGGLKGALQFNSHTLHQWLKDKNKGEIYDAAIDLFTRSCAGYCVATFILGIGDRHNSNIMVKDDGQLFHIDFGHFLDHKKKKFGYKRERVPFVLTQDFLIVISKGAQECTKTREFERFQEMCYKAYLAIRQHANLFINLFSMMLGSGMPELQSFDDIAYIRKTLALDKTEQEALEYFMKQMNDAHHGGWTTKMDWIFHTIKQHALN

solubility [1]: 26 µM (≈ 11.8 µg/mL)
IC50 [2]: 2470 nM
Ct [3]: 31 pmol/g
bioavailability [4]: 20%
AUC/dose [5]: 1.28 µM·h
solubility at 2 h [8]: 51 µM (≈ 23.2 µg/mL)
hepatic extraction ratio at 1 h [9]: 0.37
concentration at 192 h [11]: 3 nM
AUC(0-t) at 192 h [12]: 26 µM·h
Cmax/dose [13]: 22 nM
AUC/dose [17]: 1738 nM·h
solubility at 2 h [18]: 31 µM (≈ 14.1 µg/mL)
IC50 [19]: 12 nM
AUC/dose [20]: 11213 nM·h
Tmax [21]: 4 h
bioavailability [22]: 100%
half-life [23]: 12.9 h
Tlast [25]: 14 h
bioavailability [27]: 98%
Cmax [28]: 2280 nM
Tmax [29]: 0.5 h
concentration at 192 h [30]: 110 nM
IC50 [31]: 1630 nM
AUC/dose [32]: 11213 nM·h
IC50 [33]: 99 nM
Cmax [34]: 1120 nM
AUC/dose [35]: 1.82 µM·h
Tmax [36]: 2 h
Vdss [38]: 2 L/kg
logD [39]: 2
Compound: C[C@H]1OC(=O)N(c2nc(-c3cnc(N)nc3C(F)(F)F)cc(N3CCOCC3)n2)[C@H]1CO
T/C (Rat1 [6]): 0.14
Activity [7]: Non-Toxic
Activity [10]: Toxic
Activity [14]: Toxic
inhibition in vivo at 20 mg/kg (Rat1 [15]): > 80%
IC50 [16]: 56 nM
T/C (Rat1 [24]): -0.52
Activity [26]: Non-Toxic
inhibition in vivo at 20 mg/kg [37]: 76%
